Measurements reported in ChEMBL document CHEMBL1201862, “PubChem BioAssay data set” (2004).
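The compound was tested at five concentrations on cells cultured in 96-well plates, with a 48-hour exposure period. Here, GI50 denotes the concentration required for 50% inhibition of growth.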 Calls of active or inactive are those of the source. No stated cut-off is given here; in the data, active = GI50 up to about 1.1 µM and inactive = higher.

How the values were obtained:
Test in all cases: DTP human tumour cell line panel, 48 h
786-0 = tested on: 786-0
A498 = tested on: A498
A549 = tested on: A549
ACHN = tested on: ACHN
CAKI-1 = tested on: CAKI-1
COLO 205 = tested on: COLO 205
DLD-1 = tested on: DLD-1
DMS-114 = tested on: DMS-114
DMS-273 = tested on: DMS-273
EKVX = tested on: EKVX
HCC 2998 = tested on: HCC 2998
HCT-116 = tested on: HCT-116
HCT-15 = tested on: HCT-15
HOP-18 = tested on: HOP-18
HOP-62 = tested on: HOP-62
HOP-92 = tested on: HOP-92
HT-29 = tested on: HT-29
IGROV-1 = tested on: IGROV-1
KM-20L2 = tested on: KM-20L2
KM12 = tested on: KM12
LOX IMVI = tested on: LOX IMVI
LXFL 529 = tested on: LXFL 529
M14 = tested on: M14
M19-MEL = tested on: M19-MEL
Malme-3M = tested on: Malme-3M
NCI-H226 = tested on: NCI-H226
NCI-H23 = tested on: NCI-H23
NCI-H460 = tested on: NCI-H460
OVCAR-3 = tested on: OVCAR-3
OVCAR-4 = tested on: OVCAR-4
OVCAR-5 = tested on: OVCAR-5
OVCAR-8 = tested on: OVCAR-8
RPMI-8226 = tested on: RPMI-8226
RXF 393 = tested on: RXF 393
RXF 631 = tested on: RXF 631
SF-268 = tested on: SF-268
SF-295 = tested on: SF-295
SF-539 = tested on: SF-539
SK-MEL-28 = tested on: SK-MEL-28
SK-MEL-2 = tested on: SK-MEL-2
SK-OV-3 = tested on: SK-OV-3
SN12C = tested on: SN12C
SNB-19 = tested on: SNB-19
SNB-75 = tested on: SNB-75
SNB-78 = tested on: SNB-78
SW-620 = tested on: SW-620
TK-10 = tested on: TK-10
U-251 = tested on: U-251
UACC-257 = tested on: UACC-257
UACC-62 = tested on: UACC-62
UO-31 = tested on: UO-31
XF498 = tested on: XF498
CCRF-CEM = tested on: CCRF-CEM
HL-60 = tested on: HL-60
K562 = tested on: K562
MOLT-4 = tested on: MOLT-4
SK-MEL-5 = tested on: SK-MEL-5

COC(=O)/C(=N\Nc1nc(S)nn1N)C(C#N)c1ccc(Cl)cc1 (configuration not stated)
GI50 (786-0): > 100 µM (inactive) | GI50 (A498): > 100 µM (inactive) | GI50 (A549): > 100 µM (inactive) | GI50 (ACHN): > 100 µM (inactive) | GI50 (CAKI-1): > 100 µM (inactive) | GI50 (COLO 205): > 100 µM (inactive) | GI50 (DLD-1): > 100 µM (inactive) | GI50 (DMS-114): > 100 µM (inactive) | GI50 (DMS-273): > 100 µM (inactive) | GI50 (EKVX): > 100 µM (inactive) | GI50 (HCC 2998): > 100 µM (inactive) | GI50 (HCT-116): > 100 µM (inactive) | GI50 (HCT-15): > 100 µM | GI50 (HOP-18): > 100 µM (inactive) | GI50 (HOP-62): > 100 µM (inactive) | GI50 (HOP-92): > 100 µM (inactive) | GI50 (HT-29): > 100 µM (inactive) | GI50 (IGROV-1): > 100 µM (inactive) | GI50 (KM-20L2): > 100 µM (inactive) | GI50 (KM12): > 100 µM (inactive) | GI50 (LOX IMVI): > 100 µM (inactive) | GI50 (LXFL 529): > 100 µM (inactive) | GI50 (M14): > 100 µM (inactive) | GI50 (M19-MEL): > 100 µM (inactive) | GI50 (Malme-3M): > 100 µM (inactive) | GI50 (NCI-H226): > 100 µM (inactive) | GI50 (NCI-H23): > 100 µM (inactive) | GI50 (NCI-H460): > 100 µM (inactive) | GI50 (OVCAR-3): > 100 µM (inactive) | GI50 (OVCAR-4): > 100 µM (inactive) | GI50 (OVCAR-5): > 100 µM (inactive) | GI50 (OVCAR-8): > 100 µM (inactive) | GI50 (RPMI-8226): > 100 µM (inactive) | GI50 (RXF 393): > 100 µM (inactive) | GI50 (RXF 631): > 100 µM (inactive) | GI50 (SF-268): > 100 µM (inactive) | GI50 (SF-295): > 100 µM (inactive) | GI50 (SF-539): > 100 µM (inactive) | GI50 (SK-MEL-28): > 100 µM (inactive) | GI50 (SK-MEL-2): > 100 µM (inactive) | GI50 (SK-OV-3): > 100 µM (inactive) | GI50 (SN12C): > 100 µM (inactive) | GI50 (SNB-19): > 100 µM (inactive) | GI50 (SNB-75): > 100 µM (inactive) | GI50 (SNB-78): > 100 µM (inactive) | GI50 (SW-620): > 100 µM (inactive) | GI50 (TK-10): > 100 µM (inactive) | GI50 (U-251): > 100 µM (inactive) | GI50 (UACC-257): > 100 µM (inactive) | GI50 (UACC-62): > 100 µM (inactive) | GI50 (UO-31): > 100 µM (inactive) | GI50 (XF498): > 100 µM (inactive)

CCOC(=O)Nc1ccc(S(=O)(=O)OC)cc1.CCOC(=O)Nc1ccc(S(=O)(=O)OC)cc1.Nc1ncnc2c1ncn2C1OC(CO)C(O)C1O (configuration not stated)
GI50 (786-0): 21.5 µM (inactive) | GI50 (A498): > 100 µM (inactive) | GI50 (A549): 34.3 µM (inactive) | GI50 (ACHN): > 100 µM (inactive) | GI50 (CAKI-1): > 100 µM (inactive) | GI50 (CCRF-CEM): 20.6 µM (inactive) | GI50 (COLO 205): 49 µM (inactive) | GI50 (DLD-1): 33.1 µM (inactive) | GI50 (DMS-114): 18 µM (inactive) | GI50 (DMS-273): 30.8 µM (inactive) | GI50 (EKVX): > 100 µM (inactive) | GI50 (HCC 2998): > 100 µM (inactive) | GI50 (HCT-116): 17.5 µM (inactive) | GI50 (HCT-15): 34.2 µM | GI50 (HL-60): 21.8 µM (inactive) | GI50 (HOP-18): > 100 µM (inactive) | GI50 (HOP-62): > 100 µM (inactive) | GI50 (HOP-92): > 100 µM (inactive) | GI50 (HT-29): 26.3 µM (inactive) | GI50 (IGROV-1): > 100 µM (inactive) | GI50 (K562): 23 µM (inactive) | GI50 (KM-20L2): > 100 µM (inactive) | GI50 (KM12): 99.8 µM (inactive) | GI50 (LOX IMVI): 17.8 µM (inactive) | GI50 (LXFL 529): > 100 µM (inactive) | GI50 (M14): > 100 µM (inactive) | GI50 (M19-MEL): 21.9 µM (inactive) | GI50 (MOLT-4): > 100 µM (inactive) | GI50 (Malme-3M): > 100 µM (inactive) | GI50 (NCI-H226): > 100 µM (inactive) | GI50 (NCI-H23): > 100 µM (inactive) | GI50 (NCI-H460): > 100 µM (inactive) | GI50 (OVCAR-3): > 100 µM (inactive) | GI50 (OVCAR-4): 35.3 µM (inactive) | GI50 (OVCAR-5): > 100 µM (inactive) | GI50 (OVCAR-8): > 100 µM (inactive) | GI50 (RPMI-8226): 21.6 µM (inactive) | GI50 (RXF 631): > 100 µM (inactive) | GI50 (SF-268): > 100 µM (inactive) | GI50 (SF-295): > 100 µM (inactive) | GI50 (SF-539): > 100 µM (inactive) | GI50 (SK-MEL-28): > 100 µM (inactive) | GI50 (SK-MEL-2): > 100 µM (inactive) | GI50 (SK-MEL-5): > 100 µM (inactive) | GI50 (SK-OV-3): > 100 µM (inactive) | GI50 (SN12C): > 100 µM (inactive) | GI50 (SNB-19): > 100 µM (inactive) | GI50 (SNB-75): > 100 µM (inactive) | GI50 (SNB-78): > 100 µM (inactive) | GI50 (SW-620): 18.2 µM (inactive) | GI50 (TK-10): > 100 µM (inactive) | GI50 (UACC-257): 39.6 µM (inactive) | GI50 (UACC-62): > 100 µM (inactive) | GI50 (UO-31): > 100 µM (inactive) | GI50 (XF498): 92.3 µM (inactive)
